Assays:
Echinochloa crus-galli = test: Paddy herbicidal activity test; type: in vivo; settings: irrigated paddy pot, treated at 3.5 leaf stage of Echinochloa crus-galli, 30 days
Method in brief: (§1)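 Flooded paddy-soil pots (3 cm water) were sown with Echinochloa, Monochoria and Scirpus, and rice at the 2.0-leaf stage was transplanted. Diluted wettable powder was dripped in per are at weed 3.5-leaf stage. After 30 days in a greenhouse (~30 °C), growth inhibition versus untreated plants was scored on an 11-level scale.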

Monochoria vaginalis = test: Paddy herbicidal activity test; type: in vivo; settings: irrigated paddy pot, 30 days
Method in brief: as §1

Scirpus juncoides = test: Paddy herbicidal activity test; type: in vivo; settings: irrigated paddy pot, 30 days
Method in brief: as §1

Rice plants = test: Paddy herbicidal activity test, phytotoxicity to transplanted rice; type: in vivo; settings: rice transplanted at 2.0 leaf stage, 30 days
Procedure: Rice paddy soil was filled into a 1/10000 are pot followed by the addition of suitable amounts of water and chemical fertilizer, kneading, seeding with Echinochloa crus-galli, Monochoria vaginalis and Scirpus juncoides and maintaining in an irrigated state at a water depth of 3 cm.
Wettable powder of Target Compound (I) shown in Table 1 prepared in compliance with the preparation examples were diluted with a suitable amount of water, rice plants in the 2.0 leaf stage were transplanted during 3.5 leaf stage of Echinochloa crus-galli, and treated by dropping in chemical in the prescribed amount per are using a pipette.
After treating for 30 days in a glass greenhouse at an average atmospheric temperature of 30° C., the herbicidal efficacy thereof was investigated.
Evaluation of herbicidal efficacy was carried out by comparing growth inhibition rate (%) with an untreated group, while evaluation of phytotoxicity was carried out by comparing growth inhibition rate (%) with the state of a complete eradication group, and were evaluated at 11 levels indicated below.

melting point: 123 to 124 °C
SMILES: C=C(Cl)CNc1c(C#N)cnn1-c1nn2c(c1Cl)CCCC2 [Compound 2, 1-(3-chloro-4,5,6,7-tetrahydropyrazolo[1,5-a]pyridin-2-yl)-5-(2-chloroprop-2-enylamino)pyrazole-4-carbonitrile]
Echinochloa crus-galli herbicidal efficacy (growth inhibition level) (Echinochloa crus-galli; 1g a.i./10a): 9 (9: 90% to less than 100%)
Echinochloa crus-galli herbicidal efficacy (growth inhibition level) (Echinochloa crus-galli; 5g a.i./10a): 9 (9: 90% to less than 100%)
Monochoria vaginalis herbicidal efficacy (growth inhibition level) (Monochoria vaginalis; 1g a.i./10a): 9 (9: 90% to less than 100%)
Monochoria vaginalis herbicidal efficacy (growth inhibition level) (Monochoria vaginalis; 5g a.i./10a): 9 (9: 90% to less than 100%)
Scirpus juncoides herbicidal efficacy (growth inhibition level) (Scirpus juncoides; 1g a.i./10a): 7 (7: 70% to less than 80%)
Scirpus juncoides herbicidal efficacy (growth inhibition level) (Scirpus juncoides; 5g a.i./10a): 8 (8: 80% to less than 90%)
Rice plants phytotoxicity (growth inhibition level) (Rice plants; 1g a.i./10a): 0 (0 (exponent): 0% to less than 10% (growth inhibition rate))
Rice plants phytotoxicity (growth inhibition level) (Rice plants; 5g a.i./10a): 0 (0 (exponent): 0% to less than 10% (growth inhibition rate))

— US9593122B2, “Substituted pyrazolylpyrazole derivative and use of same as herbicide” (KYOYU AGRI CO., LTD., priority 2013, dated 2017)
